{"source": "patent US20260374818A1", "about": "“CATIONIC PEPTIDES WITH BROAD SPECTRUM ACTIVITY” (priority 2023, published 2026)", "key": {"[1]": {"system": "MRSA biofilms on human skin organoid", "assay": "Skin organoid biofilm infection model, peptide solution, MRSA", "assay_type": "cell-based, methicillin resistant Staphylococcus aureus", "settings": "peptide solution 4 hrs (FIG. 3A)"}, "[2]": {"system": "S. epidermidis biofilms on Ker-CT epidermal skin", "assay": "Skin organoid biofilm model, AB103-D loaded Medvance foam dressing, S. epidermidis", "assay_type": "cell-based, Staphylococcus epidermidis"}, "[3]": {"system": "oral multispecies biofilm", "assay": "Oral multispecies biofilm development on HA disks", "assay_type": "cell-based", "settings": "10 μg/ml, 3 days"}, "[4]": {"system": "peripheral blood mononuclear cells (PBMCs)", "assay": "Cytotoxicity (LDH release), PBMCs"}}, "note": "Where a SMILES comes first, the peptide text is derived from it. [ ]: non-standard residue; d: D form."}
{"smiles": "CC[C@@H](C)[C@@H](NC(=O)[C@@H](C)NC(=O)[C@@H](CCCNC(=N)N)NC(=O)[C@@H](Cc1c[nH]c2ccccc12)NC(=O)[C@@H](CCC(N)=O)NC(=O)[C@H](NC(=O)[C@@H](CCCNC(=N)N)NC(=O)[C@H](NC(=O)[C@H](NC(=O)[C@@H](CCCNC(=N)N)NC(=O)[C@H](NC(=O)[C@H](N)CCCNC(=N)N)C(C)C)C(C)C)[C@H](C)CC)C(C)C)C(N)=O", "note": "[AB103-D, rvrvirvqwrai-NH2] (H-[dR][dV][dR][dV][dI][dR][dV][dQ][dW][dR][dA][dI]-NH2)", "values": [{"measurement": "Antibiofilm activity on skin organoid", "setting": "[1]", "value": "excellent antibiofilm activity"}, {"measurement": "Bacterial burden on organoid skin, loaded bandage", "setting": "[2]", "value": "effectively reduce the bacterial burden"}, {"measurement": "Total biovolume", "setting": "[3]", "value": "reduced total biovolume"}, {"measurement": "Percentage of dead bacterial cell volume", "setting": "[3]; compared to DJK5", "value": "significantly higher percentage of dead bacterial cell volume compared to DJK5 treatment"}, {"measurement": "Broad spectrum antibiofilm activity, more active than DJK5", "setting": "ESKAPEE Pathogens", "value": "2-4 fold"}, {"measurement": "Cytotoxicity (LDH)", "setting": "[4]", "value": "low toxicity"}]}
